Assays:
Type in all cases: cell-based, human
[1] = tested on: ALL-1 (Ph+ adult ALL, B-lineage) cell line; assay: Flow cytometric Annexin V-FITC/PI apoptosis assay
Description: (§1) Cell lines and Apoptosis Assays. We used the human leukemia cell lines ALL-1 (Ph+ adult ALL, B-lineage), LOUCY (adult T-lineage ALL; ATCC® CRL-2629™), and RAJI (Burkitt's leukemia/lymphoma; ATCC®, CCL-86) as targets to evaluate the anti-leukemic activity of cinchona alkaloids. In vivo leukemia initiating xenograft clones capable of causing disseminated and fatal leukemia in NOD-SCID mice, derived from primary leukemia cells of 5 patients with relapsed ALL, and the aforementioned 3 leukemia cells lines were treated for 24 hours or 48 hours at 37° C. with cinchona alkaloids at increasing concentrations ranging from 0.5 μM to 50 μM. Controls cells were treated with vehicle (PBS).
(§2) Apoptotic death was monitored using multiparameter flow cytometry, as previously reported (Uckun, F. M. et al., British Journal of Haematology, 2011, 153:741-752; Uckun, F. M. et al., J Clin Invest., 2015, 125:1006-18). Controls included vehicle (PBS) treated cells (CON). Cells were analyzed for apoptosis using the standard quantitative flow cytometric apoptosis assay using the Annexin V-FITC Apoptosis Detection Kit from Sigma. The labeled cells were analyzed on a LSR II flow cytometer. The percent apoptosis was calculated using the formula: 100−100×(Percentage of non-apoptotic cells in test sample/Percentage of non-apoptotic cells in untreated control sample). The percentages for Annexin V FITC^−PI^− viable cells and Annexin V-FITC^+PI^+ advanced apoptotic cells for each sample are indicated in the respective quadrants of the depicted two-color fluorescence dot plots.
as §1, with “We” for “Cell lines and Apoptosis Assays. We”, “ARES-BI-C001453. […]” for “cinchona alkaloids.”, “ARES-BI-C001453” for “cinchona alkaloids”

[2] = tested on: LOUCY (adult T-lineage ALL) cell line; assay: Flow cytometric Annexin V-FITC/PI apoptosis assay
Description: as §1, §2
as §1, with “We” for “Cell lines and Apoptosis Assays. We”, “ARES-BI-C001453. […]” for “cinchona alkaloids.”, “ARES-BI-C001453” for “cinchona alkaloids”

[3] = tested on: RAJI (Burkitt's leukemia/lymphoma) cell line; assay: Flow cytometric Annexin V-FITC/PI apoptosis assay
Description: as §1, §2
as §1, with “We” for “Cell lines and Apoptosis Assays. We”, “ARES-BI-C001453. […]” for “cinchona alkaloids.”, “ARES-BI-C001453” for “cinchona alkaloids”

[4] = tested on: ALL-1 BCR-ABL/Ph+ B-lineage ALL cell line; assay: Clonogenic assay (methylcellulose colony assay)
Description: (§3) Clonogenic Assays. The cytotoxicity of cinchona alkaloids was tested against clonogenic human cancer cells was examined using a methylcellulose colony assay system, as described previously (Uckun, F. M. et al., J. Exp. Med., 1986, 163: 347-68; Uckun, F. M. et al., J. Clin. Invest., 1993, 91: 1044-1051). In brief, cells (10^5 cells/ml in RPMI-10% fetal bovine serum) were treated for 8 hours at 37° C. with cinchona alkaloids at varying concentrations. After treatment, cells were washed twice, and resuspended in clonogenic medium consisting of RPMI 1640 supplemented with 0.9% methylcellulose, 10% fetal bovine serum, and 50 μM 2-mercaptoethanol. Cells were plated at 5×10^4 cells/ml in RPMI 1640 supplemented with 10% fetal bovine serum, and 0.9% methylcellulose in duplicate 35-mm Petri dishes, and cultured for 7 days at 37° C. in a humidified 5% CO2 incubator. Subsequently, cancer cell colonies were enumerated on a grid using an inverted phase-contrast microscope of high optical resolution. Results were expressed as the % Inhibition=[1−(Number of colonies in compound-treated test cultures/Number of colonies in vehicle-treated control cultures)]×100.
as §3, with “cytotoxicity of synthetic dimeric cinchona alkaloids” for “cytotoxicity of cinchona alkaloids”

[5] = tested on: BT-20 triple-negative breast cancer cell line; assay: Clonogenic assay (methylcellulose colony assay)
Description: as §3
as §3, with “cytotoxicity of synthetic dimeric cinchona alkaloids” for “cytotoxicity of cinchona alkaloids”

[6] = tested on: PC-3 castration-resistant prostate cancer cell line; assay: Clonogenic assay (methylcellulose colony assay)
Description: as §3
as §3, with “cytotoxicity of synthetic dimeric cinchona alkaloids” for “cytotoxicity of cinchona alkaloids”

BT-20 and PC-3 cells = assay: Clonogenic assay, pooled 4 experiments (2 PC-3, 2 BT-20); conditions: 10 μM, BT-20 and PC-3
Description: as §3
as §3, with “cytotoxicity of synthetic dimeric cinchona alkaloids” for “cytotoxicity of cinchona alkaloids”

[7] = Homo sapiens, read-out: IC50 (apoptosis)

CCC1CC23[C@H]([C@H](Oc4nnc(O[C@@H](c5ccnc6ccc(OC)cc56)[C@H]5CC6CCN5CCC6(O)CC)c5ccccc45)c4ccnc5ccc(OC)cc45)N2CC[C@@H]13 (stereo partly shown) [ARES-BI-C002453]
fold higher IC50 value than ARES-BI-C001453 ([1]; ALL-1): 9.4 fold | IC50 [1, 7]: 7.3 µM | IC50 [2, 7]: 1.5 µM | fold higher IC50 value than ARES-BI-C001453 ([2]; LOUCY): 35.7 fold | IC50 ([3]; Homo sapiens, Raji, read-out: IC50 (apoptosis)): 16.7 µM | fold higher IC50 value than ARES-BI-C001453 ([3]; RAJI): 1.9 fold

CCC1CN2CCC1CC2C(Oc1nnc(OC(c2ccnc3ccc(OC)cc23)C2CC3CCN2CC3CC)c2ccccc12)c1ccnc2ccc(OC)cc12 (stereo not shown) [Compound C61, 1,4-Bis (9-O dihydroquinidinyl)phthalazine/hydroquinidine 1,4-phathalazinediyl diether, reference compound]
in vitro colony formation by ALL-1 cells ([4]; 10 μM): abrogated the in vitro colony formation | % Inhibition ([4]; ALL-1 EXP#1, 10 μM): >99.7% | Colonies/5 × 10^4 Cells ([4]; ALL-1 EXP#1, 10 μM): 0.0 Colonies/5 × 10^4 Cells | % Inhibition ([4]; ALL-1 EXP#2, 10 μM): >99.6% | Colonies/5 × 10^4 Cells ([4]; ALL-1 EXP#2, 10 μM): 0.0 Colonies/5 × 10^4 Cells | % Inhibition ([5]; BT-20 EXP#1, 10 μM): 45.9% | Colonies/5 × 10^4 Cells ([5]; BT-20 EXP#1, 10 μM): 53.0 Colonies/5 × 10^4 Cells | % Inhibition ([5]; BT-20 EXP#2, 10 μM): 31.6% | Colonies/5 × 10^4 Cells ([5]; BT-20 EXP#2, 10 μM): 78.0 Colonies/5 × 10^4 Cells | inhibition of clonogenic growth ([6]; PC3 cells, 10 μM): 67.7% | % Inhibition ([6]; PC-3 EXP#1, 10 μM): 77.9% | Colonies/5 × 10^4 Cells ([6]; PC-3 EXP#1, 10 μM): 41.0 Colonies/5 × 10^4 Cells | % Inhibition ([6]; PC-3 EXP#2, 10 μM): 57.5% | Colonies/5 × 10^4 Cells ([6]; PC-3 EXP#2, 10 μM): 67.0 Colonies/5 × 10^4 Cells | inhibition of clonogenic growth (mean±SE) (BT-20 and PC-3 cells): 53.2±11.3% | mean number of residual clones forming colonies (BT-20 and PC-3 cells): 59.8±6.3 /5×10^4 cells

Reference: patent US11649232B2, “Synthetic dimeric cinchona alkaloids against cancer” (Ares Pharmaceuticals, LLC, priority 2021, dated 2023)
